Values after ≈ are worked out from the molar mass of the structure shown. Like-named read-outs stand apart in the source and are kept apart here.
What was measured:
[1] = system: E. faecalis ATCC 29212; test: Effect of pH on broth macrodilution MICs; format: cell-based, Enterococcus faecalis
[2] = system: Micrococcus luteus Presque Isle 456; test: Disk diffusion susceptibility testing
[3] = system: Bacillus subtilis Presque Isle 620; test: Disk diffusion susceptibility testing
[4] = system: Stenotrophomonas maltophilia ATCC 13637; test: Disk diffusion susceptibility testing
[5] = system: Pseudomonas aeruginosa Presque Isle 99; test: Disk diffusion susceptibility testing
[6] = system: Escherichia coli ATCC 25922; test: Disk diffusion susceptibility testing
[7] = system: Vancomycin-resistant E. faecalis; test: Broth macrodilution MIC and MBC, clinical isolates; conditions: 2 strains
[8] = system: Vancomycin-resistant E. faecium; test: Broth macrodilution MIC and MBC, clinical isolates; conditions: 2 strains
[9] = system: Penicillin-resistant Streptococcus pneumoniae; test: Broth macrodilution MIC and MBC, clinical isolates
[10] = system: B. circulans; test: Broth macrodilution MIC and MBC, clinical isolates; conditions: clinical isolate, 1 strain
[11] = system: B. licheniformis; test: Broth macrodilution MIC and MBC, clinical isolates; conditions: clinical isolate, 1 strain
[12] = system: Paenibacillus alvei; test: Broth macrodilution MIC and MBC, clinical isolates; conditions: clinical isolate, 1 strain
[13] = system: C. sputi; test: Broth macrodilution MIC and MBC, clinical isolates; conditions: clinical isolate, 1 strain
[14] = system: Listeria monocytogenes; test: Broth macrodilution MIC and MBC, clinical isolates; conditions: 3 strains
[15] = system: Arcanobacterium haemolyticum; test: Broth macrodilution MIC and MBC, clinical isolates; conditions: clinical isolate, 1 strain
[16] = system: Gardnerella vaginalis; test: Broth macrodilution MIC and MBC, clinical isolates; conditions: 2 strains
[17] = system: Enterococcus faecalis ATCC 29212; test: Broth macrodilution MIC and MBC, reference strains; conditions: ATCC29212
[18] = system: Micrococcus luteus Presque Isle 456; test: Broth macrodilution MIC and MBC, reference strains

Compound: CC(=O)O[C@H]1CC[C@@]2(C)[C@@H](CC[C@@H]3[C@@H]2CC[C@]2(C)[C@@H](NC(=O)[C@@H]4CCCN4)CC[C@@H]32)C1
- MIC Range ([1]; pH 6, range of 3 determinations): 32 µg/mL (≈ 74.3 µM)
- MIC Range ([1]; pH 7, range of 3 determinations): 8 to 16 µg/mL
- MIC Range ([1]; pH 8, range of 3 determinations): 4 to 8 µg/mL
- MIC [2]: 1.56-3.12 μg/disk
- MIC [3]: 3.12-6.25 μg/disk
- MIC [4]: >100 μg/disk
- MIC [5]: >100 μg/disk
- MIC [6]: >100 μg/disk
- MBC Range [7]: 16 to 64 µg/mL
- MIC Range [7]: 8 to 16 µg/mL
- MBC Range [8]: 16 to 64 µg/mL
- MIC Range [8]: 8 to 16 µg/mL
- MIC50 ([9]; Streptococcus pneumoniae): 16 µg/mL (≈ 37.2 µM)
- MIC90 ([9]; Streptococcus pneumoniae): 16 µg/mL (≈ 37.2 µM)
- MBC ([9]; Streptococcus pneumoniae, read-out: MBC 50%): 16 µg/mL (≈ 37.2 µM)
- MBC ([9]; Streptococcus pneumoniae, read-out: MBC 90%): 32 µg/mL (≈ 74.3 µM)
- MIC Range ([9]; clinical isolates, 35 strains): 8 to 32 µg/mL
- share of strains with MBC/MIC ratios ≦2 ([9]; penicillin-resistant S. pneumoniae): 88%
- MBC Range [10]: >64 µg/mL
- MIC Range [10]: 16 µg/mL (≈ 37.2 µM)
- MBC Range [11]: >64 µg/mL
- MIC Range [11]: 32 µg/mL (≈ 74.3 µM)
- MBC Range [12]: >64 µg/mL
- MIC Range [12]: 16 µg/mL (≈ 37.2 µM)
- MBC Range [13]: 32 µg/mL (≈ 74.3 µM)
- MIC Range ([13]; read at 72 h): 8 µg/mL (≈ 18.6 µM)
- MBC Range [14]: 32 to 64 µg/mL
- MIC Range [14]: 16 to 32 µg/mL
- MBC Range [15]: 32 µg/mL (≈ 74.3 µM)
- MIC Range [15]: 16 µg/mL (≈ 37.2 µM)
- MBC Range [16]: 8 µg/mL (≈ 18.6 µM)
- MIC Range ([16]; read after 48 h): 4 µg/mL (≈ 9.29 µM)
- MBC [17]: 32 µg/mL (≈ 74.3 µM)
- MIC [17]: 16 µg/mL (≈ 37.2 µM)
- MBC [18]: 64 µg/mL (≈ 149 µM)
- MIC [18]: 8 µg/mL (≈ 18.6 µM)
